Common to all, as to assay type: functional
Assay [1] concerns the target T1, Protein RecA (Mycobacterium tuberculosis, UniProt P9WHJ3).
T1 sequence (P9WHJ3 whole entry): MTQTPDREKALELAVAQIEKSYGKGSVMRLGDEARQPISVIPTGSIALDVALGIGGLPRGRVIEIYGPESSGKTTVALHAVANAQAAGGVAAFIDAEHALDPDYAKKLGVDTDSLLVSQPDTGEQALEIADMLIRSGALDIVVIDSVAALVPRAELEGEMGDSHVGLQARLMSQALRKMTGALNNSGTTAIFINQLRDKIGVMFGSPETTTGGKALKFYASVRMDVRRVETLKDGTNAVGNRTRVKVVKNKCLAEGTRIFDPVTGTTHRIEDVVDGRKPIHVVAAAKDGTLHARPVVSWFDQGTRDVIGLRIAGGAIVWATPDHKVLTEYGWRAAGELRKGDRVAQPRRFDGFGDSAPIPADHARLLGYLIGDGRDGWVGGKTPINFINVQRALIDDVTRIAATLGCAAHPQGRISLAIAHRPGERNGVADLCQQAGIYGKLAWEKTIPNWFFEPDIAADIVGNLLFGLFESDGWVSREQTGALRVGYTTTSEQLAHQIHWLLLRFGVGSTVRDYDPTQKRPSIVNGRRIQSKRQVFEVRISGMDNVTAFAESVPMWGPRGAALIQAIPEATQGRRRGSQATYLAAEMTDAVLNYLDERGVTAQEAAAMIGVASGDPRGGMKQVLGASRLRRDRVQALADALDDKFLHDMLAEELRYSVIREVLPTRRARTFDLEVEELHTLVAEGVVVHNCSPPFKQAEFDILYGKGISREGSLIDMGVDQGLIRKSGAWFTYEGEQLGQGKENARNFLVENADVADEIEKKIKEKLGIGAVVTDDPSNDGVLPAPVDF
Kind of assay: Fluorescence Cell-Free Homogeneous Dose Retest to Identify Inhibitors of RecA-Intein Splicing Activity. [Related pubchem assays (depositor defined):AID2097, AID2223, AID489010, AID492950].

The target of assay [2] is cGMP-dependent protein kinase 1 (Homo sapiens, UniProt Q13976).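 Also: value from a kinome panel screen with PRKG1 as the panel member.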
Assay [3] has as its target RAC-gamma serine/threonine-protein kinase (Homo sapiens, UniProt Q9Y243).
In assay [4] the target is Protein kinase C delta type (Homo sapiens, UniProt Q05655).
For assay [5], the target named is Tyrosine-protein kinase HCK (Homo sapiens, UniProt P08631). Nature of the assay: Navigating the Kinome. Panel member name: HCK.
Assay [6] deals with Calcium/calmodulin-dependent protein kinase type II subunit gamma (Homo sapiens, UniProt Q13555).
Assay [7] concerns the target Tyrosine-protein kinase receptor TYRO3 (Homo sapiens, UniProt Q06418).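 Also: TYRO3 value obtained as one member of a kinome-wide profiling panel.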
Assay [8] addresses Testis-specific serine/threonine-protein kinase 2 (Homo sapiens, UniProt Q96PF2).
The target in assay [9] is Activin receptor type-1 (Homo sapiens, UniProt Q04771). Kind of assay: Navigating the Kinome. Panel member name: ACVR1.
Chain of Activin receptor type-1 (Q04771 whole entry): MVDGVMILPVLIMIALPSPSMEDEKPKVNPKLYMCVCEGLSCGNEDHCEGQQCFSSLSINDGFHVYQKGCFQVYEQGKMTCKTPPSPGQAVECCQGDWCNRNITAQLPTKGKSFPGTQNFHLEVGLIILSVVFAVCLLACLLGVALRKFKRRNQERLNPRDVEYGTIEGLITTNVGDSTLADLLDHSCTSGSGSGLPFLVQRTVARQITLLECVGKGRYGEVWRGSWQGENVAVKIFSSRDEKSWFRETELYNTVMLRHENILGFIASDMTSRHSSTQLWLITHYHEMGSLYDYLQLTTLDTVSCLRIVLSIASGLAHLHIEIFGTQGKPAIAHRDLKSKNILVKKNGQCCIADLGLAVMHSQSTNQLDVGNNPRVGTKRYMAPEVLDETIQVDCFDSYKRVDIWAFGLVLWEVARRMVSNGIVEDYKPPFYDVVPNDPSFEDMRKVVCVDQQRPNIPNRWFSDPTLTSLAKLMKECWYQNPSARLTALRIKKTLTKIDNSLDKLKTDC
Assay [10] deals with Mitogen-activated protein kinase 8 (Homo sapiens, UniProt P45983).
Chain of Mitogen-activated protein kinase 8 (P45983 whole entry): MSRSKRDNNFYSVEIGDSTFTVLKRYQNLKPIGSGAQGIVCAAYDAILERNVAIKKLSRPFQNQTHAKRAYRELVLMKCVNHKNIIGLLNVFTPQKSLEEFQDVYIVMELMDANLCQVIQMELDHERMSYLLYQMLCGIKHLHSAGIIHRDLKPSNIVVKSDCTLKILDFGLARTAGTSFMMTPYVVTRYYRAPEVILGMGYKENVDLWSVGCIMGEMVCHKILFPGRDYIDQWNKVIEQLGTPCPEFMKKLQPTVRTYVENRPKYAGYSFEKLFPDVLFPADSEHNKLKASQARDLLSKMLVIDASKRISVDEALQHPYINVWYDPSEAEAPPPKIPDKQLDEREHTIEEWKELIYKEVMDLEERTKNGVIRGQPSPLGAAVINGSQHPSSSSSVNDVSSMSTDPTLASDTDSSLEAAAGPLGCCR
Assay [11] has as its target Tyrosine-protein kinase Lyn (Homo sapiens, UniProt P07948).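 Also: lyn as one member of a kinase panel.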
The target in assay [12] is Mitogen-activated protein kinase 9 (Homo sapiens, UniProt P45984).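 Also: value from a kinome panel profiling assay, MAPK9 panel entry.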
The target of assay [13] is Tyrosine-protein kinase ITK/TSK (Homo sapiens, UniProt Q08881).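 Also: affinity for ITK measured as one member of a broad kinase panel profiling binding across the kinome.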
Assay [14] deals with Serine/threonine-protein kinase TAO1 (Homo sapiens, UniProt Q7L7X3).
Assay [15] concerns the target Protein-tyrosine kinase 2-beta (Homo sapiens, UniProt Q14289).
The target in assay [16] is Platelet-derived growth factor receptor beta (Homo sapiens, UniProt P09619).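 Also: value comes from a kinome panel, with PDGFRB tested as one panel member.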
Assay [17] deals with Receptor-type tyrosine-protein kinase FLT3 (Homo sapiens, UniProt P36888).
For assay [18], the target named is Serine/threonine-protein kinase Chk1 (Homo sapiens, UniProt O14757).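 Also: measured as one member of a kinome-wide kinase profiling panel.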
Chain of Serine/threonine-protein kinase Chk1 (O14757 whole entry, canonical isoform): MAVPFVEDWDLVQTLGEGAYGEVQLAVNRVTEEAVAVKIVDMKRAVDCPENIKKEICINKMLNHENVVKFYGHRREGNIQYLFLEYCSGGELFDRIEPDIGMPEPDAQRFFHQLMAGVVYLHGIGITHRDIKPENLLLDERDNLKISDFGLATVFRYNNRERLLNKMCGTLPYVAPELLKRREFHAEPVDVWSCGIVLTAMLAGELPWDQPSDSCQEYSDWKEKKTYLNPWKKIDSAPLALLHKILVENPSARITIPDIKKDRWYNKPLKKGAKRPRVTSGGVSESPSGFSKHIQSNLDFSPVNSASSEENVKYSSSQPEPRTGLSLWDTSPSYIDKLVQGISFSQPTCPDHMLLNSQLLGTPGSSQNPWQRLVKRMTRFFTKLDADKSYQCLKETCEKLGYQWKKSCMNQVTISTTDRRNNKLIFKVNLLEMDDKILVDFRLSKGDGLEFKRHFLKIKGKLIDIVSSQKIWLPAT
Assay [19] concerns the target Casein kinase I isoform delta (Homo sapiens, UniProt P48730).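 Also: measured as one member (CSNK1D) of a kinome panel.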
Assay [20] concerns the target Tyrosine-protein kinase ABL1 (Homo sapiens, UniProt P00519).
In assay [21] the target is Calcium/calmodulin-dependent protein kinase type II subunit beta (Homo sapiens, UniProt Q13554).
Assay [22] concerns the target Vascular endothelial growth factor receptor 2 (Homo sapiens, UniProt P35968).
For assay [23], the target named is Ephrin type-A receptor 2 (Homo sapiens, UniProt P29317).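 Also: EPHA2 tested as one member of a kinome-wide kinase panel.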
The target in assay [24] is Insulin-like growth factor 1 receptor (Homo sapiens, UniProt P08069). Kind of assay: Navigating the Kinome. Panel member name: IGF1R.
The target of assay [25] is Maternal embryonic leucine zipper kinase (Homo sapiens, UniProt Q14680).
Chain of Maternal embryonic leucine zipper kinase (Q14680 whole entry): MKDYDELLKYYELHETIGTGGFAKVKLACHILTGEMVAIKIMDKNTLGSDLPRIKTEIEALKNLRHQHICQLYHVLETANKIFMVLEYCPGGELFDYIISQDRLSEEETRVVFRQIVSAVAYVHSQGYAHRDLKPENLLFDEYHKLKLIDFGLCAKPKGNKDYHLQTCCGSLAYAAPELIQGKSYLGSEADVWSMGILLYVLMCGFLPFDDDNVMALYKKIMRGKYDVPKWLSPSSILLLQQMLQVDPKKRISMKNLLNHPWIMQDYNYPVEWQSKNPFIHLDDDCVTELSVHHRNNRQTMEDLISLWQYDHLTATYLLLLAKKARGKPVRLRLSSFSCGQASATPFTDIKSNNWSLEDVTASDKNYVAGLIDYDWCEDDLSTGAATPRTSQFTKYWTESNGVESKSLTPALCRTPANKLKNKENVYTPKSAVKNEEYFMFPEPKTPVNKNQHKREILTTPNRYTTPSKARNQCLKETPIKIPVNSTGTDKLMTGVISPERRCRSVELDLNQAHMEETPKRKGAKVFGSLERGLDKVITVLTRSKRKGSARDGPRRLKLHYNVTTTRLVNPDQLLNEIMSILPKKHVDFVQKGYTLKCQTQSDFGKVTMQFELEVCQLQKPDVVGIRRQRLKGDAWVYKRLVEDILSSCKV
The target in assay [26] is Platelet-derived growth factor receptor alpha (Homo sapiens, UniProt P16234). Nature of the assay: Navigating the Kinome. Panel member name: PDGFRA.
In assay [27] the target is Aurora kinase B (Homo sapiens, UniProt Q96GD4).
For assay [28], the target named is Interleukin-1 receptor-associated kinase 4 (Homo sapiens, UniProt Q9NWZ3).
Assay [29] deals with Cyclin-dependent kinase 19 (Homo sapiens, UniProt Q9BWU1). Kind of assay: Navigating the Kinome. Panel member name: CDC2L6.
Chain of Cyclin-dependent kinase 19 (Q9BWU1 whole entry): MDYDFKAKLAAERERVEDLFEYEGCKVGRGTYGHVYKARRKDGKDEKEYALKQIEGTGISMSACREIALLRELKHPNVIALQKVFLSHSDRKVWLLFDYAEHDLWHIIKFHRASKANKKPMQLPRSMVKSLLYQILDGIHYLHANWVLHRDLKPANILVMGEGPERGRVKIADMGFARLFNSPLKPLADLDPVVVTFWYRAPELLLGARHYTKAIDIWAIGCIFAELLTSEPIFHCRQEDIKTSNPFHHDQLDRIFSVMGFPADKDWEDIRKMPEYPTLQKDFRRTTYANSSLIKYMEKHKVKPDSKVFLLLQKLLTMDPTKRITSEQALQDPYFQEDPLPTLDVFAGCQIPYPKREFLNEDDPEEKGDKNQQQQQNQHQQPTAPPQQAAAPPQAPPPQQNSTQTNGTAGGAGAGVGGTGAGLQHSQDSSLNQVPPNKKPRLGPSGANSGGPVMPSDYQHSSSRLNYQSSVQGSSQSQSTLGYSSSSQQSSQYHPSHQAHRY
The target of assay [30] is Cyclin-dependent kinase 8 (Homo sapiens, UniProt P49336). Kind of assay: Navigating the Kinome. Panel member name: CDK8.
The target of assay [31] is Cyclin-dependent kinase 9 (Homo sapiens, UniProt P50750).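 Also: value from the CDK9 entry of a kinome-spanning kinase panel.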
The target of assay [32] is BDNF/NT-3 growth factors receptor (Homo sapiens, UniProt Q16620).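 Also: NTRK2 measured as one member of a broad kinome-wide kinase profiling panel.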
The target in assay [33] is Dual specificity protein kinase CLK4 (Homo sapiens, UniProt Q9HAZ1).
Chain of Dual specificity protein kinase CLK4 (Q9HAZ1 whole entry): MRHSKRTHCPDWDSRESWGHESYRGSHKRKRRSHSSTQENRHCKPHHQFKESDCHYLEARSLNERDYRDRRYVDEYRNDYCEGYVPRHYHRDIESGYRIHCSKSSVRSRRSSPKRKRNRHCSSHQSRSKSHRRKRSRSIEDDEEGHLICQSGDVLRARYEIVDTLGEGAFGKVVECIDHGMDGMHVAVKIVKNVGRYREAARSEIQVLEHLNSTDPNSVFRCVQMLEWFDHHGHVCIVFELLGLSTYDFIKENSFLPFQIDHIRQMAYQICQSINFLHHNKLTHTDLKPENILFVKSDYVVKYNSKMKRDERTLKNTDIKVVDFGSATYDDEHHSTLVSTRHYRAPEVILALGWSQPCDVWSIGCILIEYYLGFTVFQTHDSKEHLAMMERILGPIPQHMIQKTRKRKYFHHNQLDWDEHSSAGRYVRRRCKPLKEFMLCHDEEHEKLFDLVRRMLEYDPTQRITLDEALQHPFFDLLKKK
Assay [34] deals with Mitogen-activated protein kinase kinase kinase kinase 4 (Homo sapiens, UniProt O95819).
For assay [35], the target named is Serine/threonine-protein kinase 3 (Homo sapiens, UniProt Q13188).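 Also: measured as one member of a kinome-wide kinase panel.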

The source made the active and inactive calls.

From ChEMBL document CHEMBL1201862, “PubChem BioAssay data set” (2004) come the findings set out here.

Chain of Tyrosine-protein kinase Lyn (P07948 whole entry): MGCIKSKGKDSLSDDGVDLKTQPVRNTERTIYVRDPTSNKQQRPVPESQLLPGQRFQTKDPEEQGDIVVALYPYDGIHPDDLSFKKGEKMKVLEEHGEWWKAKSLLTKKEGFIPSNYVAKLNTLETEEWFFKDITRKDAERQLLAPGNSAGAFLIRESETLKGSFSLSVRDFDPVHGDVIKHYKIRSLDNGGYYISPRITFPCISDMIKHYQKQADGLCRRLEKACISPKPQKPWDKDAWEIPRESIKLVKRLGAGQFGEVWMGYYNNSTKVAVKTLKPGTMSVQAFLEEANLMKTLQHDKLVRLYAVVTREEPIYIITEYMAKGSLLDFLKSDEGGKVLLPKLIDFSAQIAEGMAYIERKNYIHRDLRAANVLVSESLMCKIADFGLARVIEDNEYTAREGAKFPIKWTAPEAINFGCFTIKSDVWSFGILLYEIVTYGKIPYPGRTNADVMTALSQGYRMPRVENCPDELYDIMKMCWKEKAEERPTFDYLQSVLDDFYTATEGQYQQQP
Chain of Protein-tyrosine kinase 2-beta (Q14289 whole entry): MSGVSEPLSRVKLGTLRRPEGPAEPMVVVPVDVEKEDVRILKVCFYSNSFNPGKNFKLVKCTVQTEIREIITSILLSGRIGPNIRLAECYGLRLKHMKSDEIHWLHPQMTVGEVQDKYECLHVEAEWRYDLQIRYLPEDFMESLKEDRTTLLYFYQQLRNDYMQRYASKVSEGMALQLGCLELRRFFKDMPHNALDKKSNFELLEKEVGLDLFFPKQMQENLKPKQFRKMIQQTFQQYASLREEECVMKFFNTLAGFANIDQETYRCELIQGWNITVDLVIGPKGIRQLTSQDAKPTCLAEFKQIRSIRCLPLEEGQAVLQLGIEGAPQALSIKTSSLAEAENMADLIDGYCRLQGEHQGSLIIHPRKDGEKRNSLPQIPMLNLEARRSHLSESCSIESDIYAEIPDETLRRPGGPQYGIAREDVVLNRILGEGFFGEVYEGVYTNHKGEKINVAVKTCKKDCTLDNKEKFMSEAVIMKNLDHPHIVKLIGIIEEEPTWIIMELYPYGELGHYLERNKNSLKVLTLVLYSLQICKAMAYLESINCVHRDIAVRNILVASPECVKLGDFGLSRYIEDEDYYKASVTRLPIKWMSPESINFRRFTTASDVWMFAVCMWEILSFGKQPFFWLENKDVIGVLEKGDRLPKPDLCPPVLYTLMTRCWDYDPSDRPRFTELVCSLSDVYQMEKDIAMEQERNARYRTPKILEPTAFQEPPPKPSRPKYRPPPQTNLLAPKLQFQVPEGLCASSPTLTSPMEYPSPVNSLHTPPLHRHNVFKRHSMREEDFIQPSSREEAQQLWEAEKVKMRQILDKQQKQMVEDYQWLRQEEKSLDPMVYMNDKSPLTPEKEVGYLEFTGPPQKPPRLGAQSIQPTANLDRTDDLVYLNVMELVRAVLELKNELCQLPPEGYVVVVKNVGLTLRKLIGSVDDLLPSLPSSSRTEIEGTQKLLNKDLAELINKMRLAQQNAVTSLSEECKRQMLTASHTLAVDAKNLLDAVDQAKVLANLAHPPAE
Chain of Casein kinase I isoform delta (P48730 whole entry, canonical isoform): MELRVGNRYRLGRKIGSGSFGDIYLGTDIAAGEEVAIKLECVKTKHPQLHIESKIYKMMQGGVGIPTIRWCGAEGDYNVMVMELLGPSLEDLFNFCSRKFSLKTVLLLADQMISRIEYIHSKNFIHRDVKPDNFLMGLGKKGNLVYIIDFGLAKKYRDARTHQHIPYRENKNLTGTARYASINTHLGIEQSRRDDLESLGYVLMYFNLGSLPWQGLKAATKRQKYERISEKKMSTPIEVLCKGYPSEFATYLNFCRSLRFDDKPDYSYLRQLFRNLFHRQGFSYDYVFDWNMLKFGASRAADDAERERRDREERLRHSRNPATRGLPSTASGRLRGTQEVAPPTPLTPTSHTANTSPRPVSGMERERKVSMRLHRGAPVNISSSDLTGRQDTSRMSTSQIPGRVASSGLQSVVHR

One may read the EC50 as the concentration at which the effect is half-maximal. With `CCCn1nc([N+](=O)[O-])c(C(C#N)c2nc3ccccc3s2)c(Cl)c1=O` (stereo not given), the EC50 in assay [1] was 2.17 µM (active).

One may read the Ki as the equilibrium dissociation constant of an inhibitor or competing ligand from its target. For `NCCCn1cc(-c2cc(-c3cc4ccccc4s3)c3[nH]ncc3c2)c2nc(N)ncc21`, the inhibitory constant (Ki) in assay [2] was 0.00631 µM (active); in [3] it was 0.251 µM (active); in [4], 0.316 µM (active); in assay [5] it was > 3.16 µM (inactive); in [6], 0.501 µM (active); in [7], > 2.51 µM (inactive). In addition, the inhibition constant Ki in assay [8] is 1.58 µM (active); in [9], > 3.16 µM (inactive); in assay [10], > 2.51 µM (inactive); in [11] it was > 1.58 µM (inactive); in assay [12] it was > 2 µM (inactive); in assay [13] it was > 1.58 µM (inactive). Moreover, the Ki was > 5.01 µM (inactive) in [14]; 0.251 µM (active) in [15]; > 2 µM (inactive) in [16]; > 1.26 µM (inactive) in [17]; 1.26 µM (active) in [18]; 0.126 µM (active) in assay [19]. Moreover, the Ki in assay [20] was > 2.51 µM (inactive); in [21] it was 3.16 µM (active); in [22], > 5.01 µM (inactive); in assay [23] it was > 3.16 µM (inactive); in assay [24], > 2 µM (inactive); in assay [25], 0.251 µM (active). For the same compound, the Ki in assay [26] is > 2 µM (inactive); in assay [27] it was > 2 µM (inactive); in [28], 7.94 µM (active); in [29], 0.398 µM (active); in [30] it was > 3.98 µM (inactive); in [31], > 1.58 µM (inactive). For the same compound, the Ki is > 3.98 µM (inactive) in assay [32], 0.0316 µM (active) in assay [33], > 3.16 µM (inactive) in assay [34] and 0.501 µM (active) in assay [35].
